# Tested on: Mycobacterium tuberculosis
# Experiment: Antitubercular activity against Mycobacterium tuberculosis H37Rv ATCC 27294 incubated up to 7 days measured on day 7 by microplate Alamar Blue assay
# Format: functional
# Conditions: H37Rv ATCC 27294, 168 h
row,Compound,MIC90 [µM]
1,COc1ccc(-c2csc(Nc3ccc(C)cc3)n2)cc1,15.6
2,Cc1ccc(-c2nc(-c3ccccc3)c[nH]2)cc1,124
3,COc1cccc(-c2c[nH]c(-c3ccccc3)n2)c1,88.4
4,FC(F)(F)c1cccc(-c2c[nH]c(-c3ccccc3)n2)c1,37
5,COc1ccc(-c2csc(Nc3cc(Cl)cc(Cl)c3)n2)cc1,13
6,c1ccc(-c2c[nH]c(-c3ccncc3)n2)cc1,> 128
7,c1ccc(-c2c[nH]c(-c3ccccc3)n2)cc1,128
8,COc1ccccc1-c1nc(-c2ccccc2)c[nH]1,> 128
9,Oc1ccc(-c2nc(-c3ccccc3)c[nH]2)cc1,> 128
10,FC(F)(F)Oc1cccc(-c2nc(-c3ccccc3)c[nH]2)c1,35.5
11,COc1cccc(-c2nc(-c3ccccc3)c[nH]2)c1OC,55.2
12,Fc1cc(-c2nc(-c3cccc(C(F)(F)F)c3)c[nH]2)cc(C(F)(F)F)c1,6
13,COc1cc(-c2nc(-c3cccc(C(F)(F)F)c3)c[nH]2)cc(C(F)(F)F)c1,7.3
14,FC(F)(F)c1cccc(-c2c[nH]c(-c3cc(C(F)(F)F)cc(C(F)(F)F)c3)n2)c1,7.7
15,Cc1[nH]c(-c2cccc(C(F)(F)F)c2)nc1-c1cccc(C(F)(F)F)c1,14
16,Cn1cc(-c2cccc(C(F)(F)F)c2)nc1-c1cccc(C(F)(F)F)c1,7.9
17,Clc1cccc(-c2c[nH]c(-c3ccccc3)n2)c1,60.3

row,Compound,MIC90 [µM]
1,Clc1ccc(-c2c[nH]c(-c3ccccc3)n2)cc1,59.5
2,COc1ccc(-c2nc(-c3ccccc3)c[nH]2)cc1,119
3,COc1cccc(-c2nc(-c3ccccc3)c[nH]2)c1,73.7
4,FC(F)(F)c1cccc(-c2nc(-c3ccccc3)c[nH]2)c1,30.6
5,O=[N+]([O-])c1ccc(-c2c[nH]c(-c3ccccc3)n2)cc1,> 128
6,O=[N+]([O-])c1cccc(-c2nc(-c3ccccc3)c[nH]2)c1,60.6
7,COc1ccc(-c2c[nH]c(-c3ccccc3)n2)cc1,82.4
8,FC(F)(F)c1ccc(-c2c[nH]c(-c3ccccc3)n2)cc1,> 128
9,FC(F)(F)c1cccc(-c2c[nH]c(-c3ccc(Cl)cc3)n2)c1,29.8
10,Clc1cccc(-c2nc(-c3ccccc3)c[nH]2)c1,60.4
11,Clc1ccc(-c2nc(-c3ccccc3)c[nH]2)cc1,59.8
12,c1ccc(-c2c[nH]c(-c3ccsc3)n2)cc1,107
13,FC(F)(F)c1ccc(-c2nc(-c3ccccc3)c[nH]2)cc1,48.9
14,FC(F)(F)c1cccc(-c2c[nH]c(-c3cccc(C(F)(F)F)c3)n2)c1,1.7
15,c1ccc(-c2c[nH]c(C3CCCCC3)n2)cc1,125
16,NNC(=O)c1ccncc1 [ISONIAZID],0.1
17,CO[C@H]1/C=C/O[C@@]2(C)Oc3c(C)c(O)c4c(O)c(c(/C=N/N5CCN(C)CC5)c(O)c4c3C2=O)NC(=O)/C(C)=C\C=C\[C@H](C)[C@H](O)[C@@H](C)[C@@H](O)[C@@H](C)[C@H](OC(C)=O)[C@@H]1C [RIFAMPIN],0.05

# Tested on: Mycobacterium tuberculosis
# Experiment: Antitubercular activity against recombinant Mycobacterium tuberculosis H37Rv expressing Vibrio harveyii luciferase gene with acetamidase promoter assessed as prevention of metabolic recovery incubated for 10 days in anaerobic environment followed by 28 hrs recovery in aerobic environment by low-oxygen recovery assay
# Format: functional
# Conditions: not given
row,Compound,MIC90 [µM]
1,Fc1cc(-c2nc(-c3cccc(C(F)(F)F)c3)c[nH]2)cc(C(F)(F)F)c1,17.6
2,COc1cc(-c2nc(-c3cccc(C(F)(F)F)c3)c[nH]2)cc(C(F)(F)F)c1,63.7
3,FC(F)(F)c1cccc(-c2c[nH]c(-c3cc(C(F)(F)F)cc(C(F)(F)F)c3)n2)c1,11.3
4,Cn1cc(-c2cccc(C(F)(F)F)c2)nc1-c1cccc(C(F)(F)F)c1,50.7
5,FC(F)(F)c1cccc(-c2c[nH]c(-c3cccc(C(F)(F)F)c3)n2)c1,25.4

# Reference: ChEMBL document CHEMBL3593216, “Discovery of antitubercular 2,4-diphenyl-1H-imidazoles from chemical library repositioning and rational design” (2015)
